Experiments:
Assay type in all cases: in vivo
[1] = tested on: galium (catchweed bedstraw, Galium aparine); test: Test C preemergence, plant response rating
[2] = tested on: johnsongrass (Sorghum halepense); test: Test C preemergence, plant response rating
[3] = tested on: barnyardgrass (Echinochloa crus-galli); test: Test C preemergence, plant response rating; details: Preemergence
[4] = tested on: pigweed, palmer (palmer pigweed, Amaranthus palmeri); test: Test C preemergence, plant response rating
kochia (Kochia scoparia) = test: Test C preemergence, plant response rating
[5] = tested on: nightshade (eastern black nightshade, Solanum ptycanthum); test: Test C preemergence, plant response rating
[6] = tested on: windgrass (Apera spica-venti); test: Test C preemergence, plant response rating
[7] = tested on: Canada thistle (Cirsium arvense); test: Test C postemergence, plant response rating; details: for Plant response rating, Canada Thistle: scale 0 to 100; for Canada Thistle plant response rating: scale 0 to 100 (0 no effect, 100 complete control)
Summary of the method: (§1)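 Preemergence: seeds sown in loam–sand blend or silt loam and sprayed with test chemicals in a non-phytotoxic surfactant-containing solvent. Postemergence: potted plants at 2–18 cm (1–4-leaf stage) sprayed with the same formulation. After 13–15 d in greenhouse, visual rating versus controls on 0 (no effect) to 100 (complete control) scale.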

[8] = tested on: buckwheat, wild (wild buckwheat, Polygonum convolvulus); test: Test C postemergence, plant response rating; details: for Plant response rating, Buckwheat, Wild: scale 0 to 100; for Buckwheat, Wild plant response rating: scale 0 to 100 (0 no effect, 100 complete control)
Summary of the method: as §1

[9] = tested on: field poppy (Papaver rhoeas); test: Test C postemergence, plant response rating; details: for Plant response rating, Field Poppy: scale 0 to 100; for Field Poppy plant response rating: scale 0 to 100 (0 no effect, 100 complete control)
Summary of the method: as §1

[10] = tested on: field violet (Viola arvensis); test: Test C postemergence, plant response rating; details: for Plant response rating, Field Violet: scale 0 to 100; for Field Violet plant response rating: scale 0 to 100 (0 no effect, 100 complete control)
Summary of the method: as §1

[11] = tested on: geranium, cutleaf (cutleaf geranium, Geranium dissectum); test: Test C postemergence, plant response rating; details: for Plant response rating, Geranium, Cutleaf: scale 0 to 100; for Geranium, Cutleaf plant response rating: scale 0 to 100 (0 no effect, 100 complete control)
Summary of the method: as §1

[12] = tested on: johnsongrass (Sorghum halepense); test: Test C postemergence, plant response rating; details: for Plant response rating, Johnsongrass: scale 0 to 100; for Johnsongrass plant response rating: scale 0 to 100 (0 no effect, 100 complete control)
Summary of the method: as §1

[13] = tested on: nightshade (eastern black nightshade, Solanum ptycanthum); test: Test C postemergence, plant response rating; details: for Plant response rating, Nightshade: scale 0 to 100; for Nightshade plant response rating: scale 0 to 100 (0 no effect, 100 complete control)
Summary of the method: as §1

[14] = tested on: pigweed, palmer (palmer pigweed, Amaranthus palmeri); test: Test C postemergence, plant response rating; details: for Plant response rating, Pigweed, Palmer: scale 0 to 100; for Pigweed, Palmer plant response rating: scale 0 to 100 (0 no effect, 100 complete control)
Summary of the method: as §1

[15] = tested on: speedwell (bird's-eye speedwell, Veronica persica); test: Test C postemergence, plant response rating; details: for Plant response rating, Speedwell: scale 0 to 100; for Speedwell plant response rating: scale 0 to 100 (0 no effect, 100 complete control)
Summary of the method: as §1

[16] = tested on: surinam grass (Brachiaria decumbens); test: Test C postemergence, plant response rating; details: for Plant response rating, Surinam Grass: scale 0 to 100; for Surinam Grass plant response rating: scale 0 to 100 (0 no effect, 100 complete control)
Summary of the method: as §1

[17] = tested on: wild poinsettia (Euphorbia heterophylla); test: Test C postemergence, plant response rating; details: for Plant response rating, Poinsettia, Wild: scale 0 to 100; for Poinsettia, Wild plant response rating: scale 0 to 100 (0 no effect, 100 complete control)
Summary of the method: as §1

[18] = tested on: windgrass (Apera spica-venti); test: Test C postemergence, plant response rating; details: for Plant response rating, Windgrass: scale 0 to 100; for Windgrass plant response rating: scale 0 to 100 (0 no effect, 100 complete control)
Summary of the method: as §1

Compound: CCCC(=O)c1c(Br)cccc1Oc1ncc(Cl)cn1 [Compound 75]
- Plant response rating, Galium ([1]; 16 g ai/ha, scale 0 to 100): 0
- Plant response rating, Galium ([1]; 31 g ai/ha, scale 0 to 100): 0
- Plant response rating, Galium ([1]; 62 g ai/ha, scale of 0 to 100): 5
- Plant response rating, Galium ([1]; 125 g ai/ha, scale of 0 to 100): 0
- Plant response rating, Johnsongrass ([2]; 16 g ai/ha, scale 0 to 100): 0
- Plant response rating, Johnsongrass ([2]; 31 g ai/ha, scale 0 to 100): 0
- Plant response rating, Johnsongrass ([2]; 62 g ai/ha, scale 0 to 100): 30
- Plant response rating, Johnsongrass ([2]; 125 g ai/ha, scale of 0 to 100): 70
- Plant response rating, Barnyardgrass ([3]; 62 g ai/ha, scale of 0 to 100): 80
- Plant response rating, Barnyardgrass ([3]; 125 g ai/ha, scale of 0 to 100): 100
- Plant response rating, Barnyardgrass ([3]; 16 g ai/ha, scale 0 to 100): 5
- Plant response rating, Barnyardgrass ([3]; 31 g ai/ha, scale 0 to 100): 60
- Plant response rating, Pigweed, Palmer ([4]; 16 g ai/ha, scale 0 to 100): 70
- Plant response rating, Pigweed, Palmer ([4]; 31 g ai/ha, scale 0 to 100): 100
- Plant response rating, Pigweed, Palmer ([4]; 62 g ai/ha, scale 0 to 100): 95
- Plant response rating, Pigweed, Palmer ([4]; 125 g ai/ha, scale of 0 to 100): 100
- Plant response rating, Kochia (kochia (Kochia scoparia); 16 g ai/ha, scale 0 to 100): 0
- Plant response rating, Kochia (kochia (Kochia scoparia); 31 g ai/ha, scale 0 to 100): 50
- Plant response rating, Kochia (kochia (Kochia scoparia); 62 g ai/ha, scale 0 to 100): 90
- Plant response rating, Kochia (kochia (Kochia scoparia); 125 g ai/ha, scale of 0 to 100): 100
- Plant response rating, Nightshade ([5]; 16 g ai/ha, scale 0 to 100): 40
- Plant response rating, Nightshade ([5]; 31 g ai/ha, scale 0 to 100): 75
- Plant response rating, Nightshade ([5]; 62 g ai/ha, scale 0 to 100): 75
- Plant response rating, Nightshade ([5]; 125 g ai/ha, scale of 0 to 100): 80
- Plant response rating, Windgrass ([6]; 16 g ai/ha, scale 0 to 100): 5
- Plant response rating, Windgrass ([6]; 31 g ai/ha, scale 0 to 100): 45
- Plant response rating, Windgrass ([6]; 62 g ai/ha, scale 0 to 100): 100
- Plant response rating, Windgrass ([6]; 125 g ai/ha, scale of 0 to 100): 100
- Plant response rating, Canada Thistle ([7]; 16 g ai/ha): 70
- Plant response rating, Canada Thistle ([7]; 31 g ai/ha): 75
- Canada Thistle plant response rating ([7]; 62 g ai/ha): 75
- Canada Thistle plant response rating ([7]; 125 g ai/ha): 100
- Plant response rating, Buckwheat, Wild ([8]; 16 g ai/ha): 45
- Plant response rating, Buckwheat, Wild ([8]; 31 g ai/ha): 60
- Buckwheat, Wild plant response rating ([8]; 62 g ai/ha): 80
- Buckwheat, Wild plant response rating ([8]; 125 g ai/ha): 85
- Plant response rating, Field Poppy ([9]; 16 g ai/ha): 70
- Plant response rating, Field Poppy ([9]; 31 g ai/ha): 80
- Field Poppy plant response rating ([9]; 62 g ai/ha): 80
- Field Poppy plant response rating ([9]; 125 g ai/ha): 100
- Plant response rating, Field Violet ([10]; 16 g ai/ha): 80
- Plant response rating, Field Violet ([10]; 31 g ai/ha): 98
- Field Violet plant response rating ([10]; 62 g ai/ha): 98
- Field Violet plant response rating ([10]; 125 g ai/ha): 100
- Plant response rating, Geranium, Cutleaf ([11]; 16 g ai/ha): 30
- Plant response rating, Geranium, Cutleaf ([11]; 31 g ai/ha): 40
- Geranium, Cutleaf plant response rating ([11]; 62 g ai/ha): 35
- Geranium, Cutleaf plant response rating ([11]; 125 g ai/ha): 65
- Plant response rating, Johnsongrass ([12]; 16 g ai/ha): 5
- Plant response rating, Johnsongrass ([12]; 31 g ai/ha): 10
- Johnsongrass plant response rating ([12]; 62 g ai/ha): 10
- Johnsongrass plant response rating ([12]; 125 g ai/ha): 70
- Plant response rating, Nightshade ([13]; 16 g ai/ha): 75
- Plant response rating, Nightshade ([13]; 31 g ai/ha): 80
- Nightshade plant response rating ([13]; 62 g ai/ha): 85
- Nightshade plant response rating ([13]; 125 g ai/ha): 98
- Plant response rating, Pigweed, Palmer ([14]; 16 g ai/ha): 75
- Plant response rating, Pigweed, Palmer ([14]; 31 g ai/ha): 90
- Pigweed, Palmer plant response rating ([14]; 62 g ai/ha): 95
- Pigweed, Palmer plant response rating ([14]; 125 g ai/ha): 85
- Plant response rating, Speedwell ([15]; 16 g ai/ha): 90
- Plant response rating, Speedwell ([15]; 31 g ai/ha): 95
- Speedwell plant response rating ([15]; 62 g ai/ha): 100
- Speedwell plant response rating ([15]; 125 g ai/ha): 100
- Plant response rating, Surinam Grass ([16]; 16 g ai/ha): 10
- Plant response rating, Surinam Grass ([16]; 31 g ai/ha): 15
- Surinam Grass plant response rating ([16]; 62 g ai/ha): 20
- Surinam Grass plant response rating ([16]; 125 g ai/ha): 20
- Plant response rating, Poinsettia, Wild ([17]; 16 g ai/ha): 65
- Plant response rating, Poinsettia, Wild ([17]; 31 g ai/ha): 70
- Poinsettia, Wild plant response rating ([17]; 62 g ai/ha): 80
- Poinsettia, Wild plant response rating ([17]; 125 g ai/ha): 80
- Plant response rating, Windgrass ([18]; 16 g ai/ha): 0
- Plant response rating, Windgrass ([18]; 31 g ai/ha): 5
- Windgrass plant response rating ([18]; 62 g ai/ha): 10
- Windgrass plant response rating ([18]; 125 g ai/ha): 5

From patent US11053204B2, “Pyrimidinyloxy benzene derivatives as herbicides” (FMC Corporation, priority 2015, dated 2021)
